Source: patent US20230310532A1, “FOOD EXTRACTS, METHODS OF EXTRACTION AND COMPOSITIONS THEREOF” (National University of Singapore, priority 2020, published 2023)
Read-outs that look alike come from different tables or passages of the source.

Target: T1, Pancreatic lipase (from porcine pancreas, type II) (Sus scrofa, UniProt P00591)
T1 construct: Pancreatic lipase (from porcine pancreas, type II, 100-500 units/mg, L3126); purchased Sigma-Aldrich L3126; host or cells: porcine pancreas (tissue-derived)
T1 sequence (P00591 1-450): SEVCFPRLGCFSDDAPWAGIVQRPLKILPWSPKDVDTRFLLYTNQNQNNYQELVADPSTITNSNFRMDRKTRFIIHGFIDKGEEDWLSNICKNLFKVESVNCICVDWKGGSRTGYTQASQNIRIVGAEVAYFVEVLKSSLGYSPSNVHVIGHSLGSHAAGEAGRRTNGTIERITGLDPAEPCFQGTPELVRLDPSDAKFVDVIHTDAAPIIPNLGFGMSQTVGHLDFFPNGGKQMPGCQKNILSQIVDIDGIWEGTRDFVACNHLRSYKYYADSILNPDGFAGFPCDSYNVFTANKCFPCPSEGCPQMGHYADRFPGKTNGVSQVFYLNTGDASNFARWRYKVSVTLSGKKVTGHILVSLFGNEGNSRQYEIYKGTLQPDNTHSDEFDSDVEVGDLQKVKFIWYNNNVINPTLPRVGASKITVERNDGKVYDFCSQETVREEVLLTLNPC
Test: Pancreatic lipase (PL) inhibitory activity assay using pNPP as substrate
Assay type: biochemical
Method: Pancreatic Lipase Activity Assay Preparation The pancreatic lipase activity assay uses 4-nitrophenyl palmitate (pNPP) as colorimetric lipase substrate. […] Tris-Borate-EDTA buffer (10X, pH 8.3, PB 1040) was purchased from Vivantis Technologies (Selangor, Malaysia).
Buffer solution was prepared by diluting the 10X Tris-Borate-EDTA buffer (890 mM) into 50 mM solution, followed by addition of 0.35% (m/v) sodium deoxycholate, and adjust pH to 8.3. pNPP solution was prepared by adding pNPP into isopropanol to make a 1.5 mg/mL solution. Both solutions were stored in fridge (4° C.) for further tests. PL solution was prepared by suspending PL in 4° C. buffer solution (10 mg/mL), shaking by vortex mixer for 2 min, and centrifuging at 4° C., 6000 rpm for 5 min. The supernatant was divided into several 0.5 mL aliquots in 0.6 mL PP centrifuge tubes and stored in freezer (-18° C.) for further tests.
High-throughput Pancreatic Lipase Activity Assay. For each sample, 20 µL of extract was transferred into a 0.6 mL PP centrifuge tube, dry up at room temperature for 10 min, followed by adding 300 µL buffer solution. The mixture was sonicated thoroughly in water bath sonicator, 150 µL of the sample was transferred onto a 96-well microplate (Corning, clear polystyrene, USA), and incubated in microplate reader (Synergy HT, Biotek Instruments Inc., Winooski, VT, USA) at 37° C. for 15 min. Meanwhile, frozen lipase solution was thawed in room temperature, 10 µL of which was added into the well, and incubate at 37° C. for another 10 min. Finally, the reaction starts by adding 10 µL pNPP solution into each well. The reading wavelength was fixed at 410 nm, 3 s shaking before each reading, and a 1-hour kinetic data was obtained by a reading interval of 20 or 60 seconds. Negative control group (blank) was prepared by adding 20 µL pure solvent instead of extract in the first step.
The tendency of readings in the first 3 minutes were regarded as linear growth, and the slope was calculated by linear regression in Excel (Office 2016, Microsoft, USA). The inhibition activity of each sample is calculated in percentage inhibition by Eq. 1.
Comparator PL Inhibitory Assay (pNPP as substrate). p-Nitrophenyl palmitate (pNPP) is a synthetic chemical probe widely used in PL inhibitory assay. Long chain fatty acid (palmitic acid) and chromatic indicator (p-nitrophenol) are linked by an ester bond, and the molecule works as a substrate of PL. Hydrolyzed by PL in buffer solution, pNPP molecules release the indicators, and a yellowish color is presented. PL activity is indicated by the speed of color gain by time, and the color could be measured by optical density at 410 nm by a spectrometer. […] According to Michaelis-Menten equation, PL activity could be presented by the initial rate of the reaction. […] The inhibition is calculated percentage by Eq.1, and a dose-response curve could be plotted according to PL inhibition under different inhibitor concentrations (FIG. 1B). Fitting with proper model, IC50 could be calculated by plugging 50% into the fitted formula.

[1] = isolated resin glycosides of sweet potato tuber, read-out: PL inhibition IC50
[2] = lipase inhibition, resin glycosides in fraction F5.1.23.34 of sweet potato tuber, read-out: IC50
[3] = lipase inhibition, resin glycosides in fraction F5.1.23.34 of sweet potato tuber, read-out: IC50 (µg/mL) (converted)
[4] = lipase inhibition, resin glycosides in fraction F5.1.23.34 of sweet potato tuber

Compound: CCCCC[C@H]1CCCCCCCCCC(=O)O[C@H]2[C@H](O[C@H]3[C@H](O1)O[C@H](C)[C@H](O)[C@@H]3O)O[C@@H](C)[C@H](O[C@@H]1O[C@@H](C)[C@H](O[C@@H]3O[C@@H](C)[C@H](OC(=O)[C@@H](C)CC)[C@@H](OC(=O)/C=C/c4ccccc4)[C@H]3O)[C@@H](O[C@@H]3O[C@@H](C)[C@H](O)[C@@H](O)[C@H]3O)[C@H]1OC(=O)[C@@H](C)CC)[C@H]2O [Batatoside III]
- IC50 [1]: 4.9 to 6.7 µM
- IC50 [2]: 4.9 µM
- IC50 [3]: 4.91 µM

Compound: CCCCCC1CCCCCCCCCC(=O)OC2C(O)C(OC(C)C2OC2OC(C)C(OC3OC(C)C(OC(=O)C(C)CC)C(OC(=O)C=Cc4ccccc4)C3O)C(OC3OC(C)C(O)C(O)C3O)C2OC(=O)C(C)CC)OC2C(O1)OC(C)C(O)C2O (stereo not shown) [Pescaprein XXVII]
- IC50 [1]: 4.9 to 6.7 µM
- IC50 [2]: 5.6 µM
- IC50 [3]: 5.61 µM

Compound: Batataoside I
- IC50 (µg/mL) [4]: 8.5 µg/mL
- IC50 [2]: 6.7 µM

Compound: Batataoside II
- IC50 (µg/mL) [4]: 7.6 µg/mL
- IC50 [2]: 6 µM
